The record followed here is patent US12139520B2 (priority 2020, dated 2024).

Where two headings read alike, the source gives them in different places. Bridge positions count the residues as written; N and C are the ends. Square brackets hold non-standard residues; d marks the D form. Peptide text beside a SMILES is read from it. Hyp = O=C(O)[C@@H]1C[C@@H](O)CN1

As usually defined, the EC50 is the concentration needed to bring the measured effect to its halfway point.

The target of one data set is hAM1 receptor (Homo sapiens, UniProt O60895+Q16602). The experiment in a line: cAMP assay for in vitro receptor activation, hAM1-R. The format is cell-based. A digest of the protocol: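 Monoclonal stable hAM1-overexpressing cells, thawed from frozen stock; 8000 cells/well in DPBS + 0.05% casein + 0.5 mM IBMX; read-out cAMP.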
Sequence of hAM1 receptor (Q16602 23-461): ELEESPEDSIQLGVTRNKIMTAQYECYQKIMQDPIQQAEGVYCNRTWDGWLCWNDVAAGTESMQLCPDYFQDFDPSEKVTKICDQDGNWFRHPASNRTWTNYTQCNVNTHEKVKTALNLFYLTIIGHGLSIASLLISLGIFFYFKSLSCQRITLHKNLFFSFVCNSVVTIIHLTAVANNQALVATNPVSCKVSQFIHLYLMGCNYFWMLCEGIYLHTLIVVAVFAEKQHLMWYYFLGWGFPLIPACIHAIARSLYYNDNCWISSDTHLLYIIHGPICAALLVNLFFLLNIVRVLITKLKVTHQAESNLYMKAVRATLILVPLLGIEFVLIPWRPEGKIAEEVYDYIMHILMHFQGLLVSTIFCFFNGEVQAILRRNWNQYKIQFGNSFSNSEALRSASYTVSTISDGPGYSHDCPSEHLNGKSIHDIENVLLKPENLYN
Sequence of hAM1 receptor (O60895 43-175 partner): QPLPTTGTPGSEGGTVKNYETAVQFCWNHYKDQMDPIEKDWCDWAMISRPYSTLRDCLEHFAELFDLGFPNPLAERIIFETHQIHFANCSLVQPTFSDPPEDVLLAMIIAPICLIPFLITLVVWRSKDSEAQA
On the technique in general: Changes in cAMP serve as a functional read-out for many G protein-coupled receptors.

A short description of data set [1]: Physical stability of peptide analogues (Thioflavin T fibrillation). It counts as physicochemical. The note with it: maximum ThT signal normalized between hAMY maximum and buffer background; 40° C., shaking, four days; pH 7 per table title. A digest of the protocol: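 ThT fluorescence (450 nm excitation, 480 nm emission; 4 μM dye) was read every 10 min over four days at 40° C under 700 rpm shaking stress, after 1 h in pH 4 acetate or pH 7 phosphate (50 mM). Peak smoothed signal expressed as percent, scaled between buffer background and hAMY maximum.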

Setting [2] is: cAMP assay, hAM1 receptor, read-out: hAM1R EC50.

Take `CC[C@H](C)[C@H](NC(=O)[C@H](CCC(N)=O)NC(=O)[C@H](Cc1c[nH]cn1)NC(=O)[C@H](C)NC(=O)[C@H](CC(C)C)NC(=O)[C@H](CCCNC(=N)N)NC(=O)[C@H](CCC(N)=O)NC(=O)[C@@H](NC(=O)[C@@H](NC(=O)[C@@H]1CSSC[C@H](NC(=O)CN)C(=O)N[C@@H](CCCNC(=N)N)C(=O)N[C@@H]([C@@H](C)O)C(=O)NCC(=O)N[C@@H]([C@@H](C)O)C(=O)N1)[C@@H](C)O)C(C)C)C(=O)N[C@@H](C)C(=O)N[C@@H](CCC(N)=O)C(=O)N[C@@H](Cc1ccccc1)C(=O)N[C@H](C(=O)N[C@@H](CC(=O)O)C(=O)N[C@@H](CCCCN)C(=O)N[C@@H](Cc1ccccc1)C(=O)N[C@@H](CCCCN)C(=O)N[C@@H](CC(=O)O)C(=O)N[C@@H](CC(N)=O)C(=O)N[C@H](C(=O)N[C@@H](C)C(=O)N1CCC[C@H]1C(=O)N[C@@H](CCCNC(=N)N)C(=O)N[C@@H](CO)C(=O)N[C@@H](CCCCN)C(=O)N[C@H](C(=O)N[C@@H](CO)C(=O)N1CCC[C@H]1C(=O)N[C@@H](CCC(N)=O)C(=O)N[C@H](C(=O)N1C[C@H](O)C[C@H]1C(N)=O)[C@@H](C)O)[C@@H](C)CC)C(C)C)[C@@H](C)O` [compound 196] (H-GCRTGTCTVQRLAHQIAQFTDKFKDNVAPRSKISPQT[Hyp]-NH2; disulfide 2-7; N-terminus assumed): on hAM1 receptor (setting [2]), the EC50 was more than 5 µM. Besides, the “Max ThT signal (%)” value in data set [1] was determined as 0.500%.
For the compound `CC[C@H](C)[C@H](NC(=O)[C@H](CCC(N)=O)NC(=O)[C@H](Cc1c[nH]cn1)NC(=O)[C@H](C)NC(=O)[C@H](CC(C)C)NC(=O)[C@H](CCCNC(=N)N)NC(=O)[C@H](CCC(N)=O)NC(=O)[C@@H](NC(=O)[C@@H](NC(=O)[C@@H]1CSSC[C@H](NC(=O)CN)C(=O)N[C@@H](CCCNC(=N)N)C(=O)N[C@@H]([C@@H](C)O)C(=O)NCC(=O)N[C@@H]([C@@H](C)O)C(=O)N1)[C@@H](C)O)C(C)C)C(=O)N[C@@H](Cc1ccc(O)cc1)C(=O)N[C@@H](CCC(N)=O)C(=O)N[C@@H](Cc1ccccc1)C(=O)N[C@H](C(=O)N[C@@H](CC(=O)O)C(=O)N[C@@H](CCCCN)C(=O)N[C@@H](Cc1ccccc1)C(=O)N[C@@H](CCCCN)C(=O)N[C@@H](CC(=O)O)C(=O)N[C@@H](CC(N)=O)C(=O)N[C@H](C(=O)N[C@@H](C)C(=O)N1CCC[C@H]1C(=O)N[C@@H](CCCNC(=N)N)C(=O)N[C@@H](CO)C(=O)N[C@@H](CCCCN)C(=O)N[C@H](C(=O)N[C@@H](CO)C(=O)N1CCC[C@H]1C(=O)N[C@@H](CCC(N)=O)C(=O)N1CCC[C@H]1C(=O)N1C[C@H](O)C[C@H]1C(N)=O)[C@@H](C)CC)C(C)C)[C@@H](C)O` [compound 203] (H-GCRTGTCTVQRLAHQIYQFTDKFKDNVAPRSKISPQP[Hyp]-NH2; disulfide 2-7; N-terminus assumed), the 50% effective concentration (EC50) on hAM1 receptor was more than 5 µM. Moreover, the “Max ThT signal (%)” value in data set [1] is on record as 1.200%.
For the compound `CC(C)C[C@H](NC(=O)[C@H](CCCNC(=N)N)NC(=O)[C@H](CCC(N)=O)NC(=O)[C@@H](NC(=O)[C@@H](NC(=O)[C@@H]1CSSC[C@H](NC(=O)[C@@H](N)CCCCN)C(=O)N[C@@H](CC(N)=O)C(=O)N[C@@H]([C@@H](C)O)C(=O)N[C@@H](C)C(=O)N[C@@H]([C@@H](C)O)C(=O)N1)[C@@H](C)O)C(C)C)C(=O)N[C@@H](C)C(=O)N[C@@H](Cc1c[nH]cn1)C(=O)N[C@@H](CCC(N)=O)C(=O)N[C@@H](C)C(=O)N[C@@H](Cc1ccc(O)cc1)C(=O)N[C@@H](CCC(N)=O)C(=O)N[C@@H](Cc1ccccc1)C(=O)N[C@H](C(=O)N[C@@H](CC(=O)O)C(=O)N[C@@H](CCCCN)C(=O)N[C@@H](CC(=O)O)C(=O)N[C@@H](CCCCN)C(=O)N[C@@H](CC(=O)O)C(=O)N[C@@H](CC(N)=O)C(=O)N[C@H](C(=O)N[C@@H](C)C(=O)N1CCC[C@H]1C(=O)N1CCC[C@H]1C(=O)N[C@H](C(=O)N[C@@H](CC(N)=O)C(=O)N[C@H](C(=O)NCC(=O)N[C@@H](CO)C(=O)N[C@@H](CC(N)=O)C(=O)NCC(=O)N1C[C@H](O)C[C@H]1C(N)=O)C(C)C)[C@@H](C)O)C(C)C)[C@@H](C)O` [compound 210] (H-KCNTATCTVQRLAHQAYQFTDKDKDNVAPPTNVGSNG[Hyp]-NH2; disulfide 2-7), the concentration for a half-maximal effect (EC50) at hAM1 receptor (setting [2]) was more than 5 µM. In data set [1], the “Max ThT signal (%)” value worked out at 1.400%.
As to `CC[C@H](C)[C@H](NC(=O)[C@H](CCC(N)=O)NC(=O)[C@H](Cc1c[nH]cn1)NC(=O)[C@H](C)NC(=O)[C@H](CC(C)C)NC(=O)[C@H](CCCNC(=N)N)NC(=O)[C@H](CCC(N)=O)NC(=O)[C@@H](NC(=O)[C@@H](NC(=O)[C@@H]1CSSC[C@H](NC(=O)CN)C(=O)N[C@@H](CCCNC(=N)N)C(=O)N[C@@H]([C@@H](C)O)C(=O)NCC(=O)N[C@@H]([C@@H](C)O)C(=O)N1)[C@@H](C)O)C(C)C)C(=O)N[C@@H](Cc1ccc(O)cc1)C(=O)N[C@@H](CCC(N)=O)C(=O)N[C@@H](Cc1ccccc1)C(=O)N[C@H](C(=O)N[C@@H](CC(=O)O)C(=O)N[C@@H](CCCCN)C(=O)N[C@@H](Cc1ccccc1)C(=O)N[C@@H](CCCCN)C(=O)N[C@@H](CC(=O)O)C(=O)N[C@@H](CC(N)=O)C(=O)N[C@H](C(=O)N[C@@H](C)C(=O)N1CCC[C@H]1C(=O)N[C@@H](CCCNC(=N)N)C(=O)N[C@@H](CO)C(=O)N[C@@H](CCCCN)C(=O)N[C@H](C(=O)N[C@@H](CO)C(=O)N1CCC[C@H]1C(=O)N[C@@H](CCC(N)=O)C(=O)N[C@H](C(=O)N[C@@H](CCSC)C(N)=O)[C@@H](C)O)[C@@H](C)CC)C(C)C)[C@@H](C)O` [compound 215] (H-GCRTGTCTVQRLAHQIYQFTDKFKDNVAPRSKISPQTM-NH2; disulfide 2-7), the EC50 on hAM1 receptor (setting [2]) is more than 5 µM. Further, the “Max ThT signal (%)” value in data set [1] is listed as 0.600%.
For `CC[C@H](C)[C@H](NC(=O)[C@H](CCCCN)NC(=O)[C@H](CO)NC(=O)[C@H](CCCNC(=N)N)NC(=O)[C@@H]1CCCN1C(=O)[C@H](C)NC(=O)[C@@H](NC(=O)[C@H](CC(N)=O)NC(=O)[C@H](CC(=O)O)NC(=O)[C@H](CCCCN)NC(=O)[C@H](CC(=O)O)NC(=O)[C@H](CCCCN)NC(=O)[C@H](CC(=O)O)NC(=O)[C@@H](NC(=O)[C@H](Cc1ccccc1)NC(=O)[C@H](CCC(N)=O)NC(=O)[C@H](Cc1ccc(O)cc1)NC(=O)[C@H](CC(C)C)NC(=O)[C@H](CCC(N)=O)NC(=O)[C@H](Cc1c[nH]cn1)NC(=O)[C@H](C)NC(=O)[C@H](CC(C)C)NC(=O)[C@H](CCCNC(=N)N)NC(=O)[C@H](CCC(N)=O)NC(=O)[C@@H](NC(=O)[C@@H](NC(=O)[C@@H]1CSSC[C@H](NC(=O)CN)C(=O)N[C@@H](CCCNC(=N)N)C(=O)N[C@@H](Cc2ccccc2)C(=O)NCC(=O)N[C@@H]([C@@H](C)O)C(=O)N1)[C@@H](C)O)C(C)C)[C@@H](C)O)C(C)C)C(=O)N[C@@H](CO)C(=O)N1CCC[C@H]1C(=O)N[C@@H](CCC(N)=O)C(=O)N[C@H](C(=O)N1C[C@H](O)C[C@H]1C(N)=O)[C@@H](C)O` [compound 217] (H-GCRFGTCTVQRLAHQLYQFTDKDKDNVAPRSKISPQT[Hyp]-NH2; disulfide 2-7; N-terminus assumed), in that order: more than 5 µM and 13.800%.
For `CC[C@H](C)[C@H](NC(=O)[C@H](CCC(N)=O)NC(=O)[C@H](Cc1c[nH]cn1)NC(=O)[C@H](C)NC(=O)[C@H](CC(C)C)NC(=O)[C@H](CCCNC(=N)N)NC(=O)[C@H](CCC(N)=O)NC(=O)[C@@H](NC(=O)[C@@H](NC(=O)[C@@H]1CSSC[C@H](NC(=O)CN)C(=O)N[C@@H](CCCNC(=N)N)C(=O)N[C@@H]([C@@H](C)O)C(=O)NCC(=O)N[C@@H]([C@@H](C)O)C(=O)N1)[C@@H](C)O)C(C)C)C(=O)N[C@@H](Cc1ccc(O)cc1)C(=O)N[C@@H](CCC(N)=O)C(=O)N[C@@H](Cc1ccccc1)C(=O)N[C@H](C(=O)N[C@@H](CC(=O)O)C(=O)N[C@@H](CCCCN)C(=O)N[C@@H](Cc1ccccc1)C(=O)N[C@@H](CCCCN)C(=O)N[C@@H](CC(=O)O)C(=O)N[C@@H](CC(N)=O)C(=O)N[C@H](C(=O)N[C@@H](C)C(=O)N1CCC[C@H]1C(=O)N[C@@H](CCCNC(=N)N)C(=O)N[C@@H](CO)C(=O)N[C@@H](CCCCN)C(=O)N[C@H](C(=O)N[C@@H](CO)C(=O)N1CCC[C@H]1C(=O)N[C@@H](CCC(N)=O)C(=O)N[C@@H](C)C(=O)N1C[C@H](O)C[C@H]1C(N)=O)[C@@H](C)CC)C(C)C)[C@@H](C)O` [compound 218] (H-GCRTGTCTVQRLAHQIYQFTDKFKDNVAPRSKISPQA[Hyp]-NH2; disulfide 2-7; N-terminus assumed), in that order: more than 5 µM and 4.500%.
As for `CC[C@H](C)[C@H](NC(=O)[C@H](CCC(N)=O)NC(=O)[C@H](Cc1c[nH]cn1)NC(=O)[C@H](C)NC(=O)[C@H](CC(C)C)NC(=O)[C@H](CCCNC(=N)N)NC(=O)[C@H](CCC(N)=O)NC(=O)[C@@H](NC(=O)[C@@H](NC(=O)[C@@H]1CSSC[C@H](NC(=O)CN)C(=O)N[C@@H](CCCNC(=N)N)C(=O)N[C@@H]([C@@H](C)O)C(=O)NCC(=O)N[C@@H]([C@@H](C)O)C(=O)N1)[C@@H](C)O)C(C)C)C(=O)N[C@@H](Cc1ccc(O)cc1)C(=O)N[C@@H](CCC(N)=O)C(=O)N[C@@H](Cc1ccccc1)C(=O)N[C@H](C(=O)N[C@@H](CC(N)=O)C(=O)N[C@@H](CCCCN)C(=O)N[C@@H](CC(=O)O)C(=O)N[C@@H](CCCCN)C(=O)N[C@@H](CC(=O)O)C(=O)N[C@@H](CC(N)=O)C(=O)N[C@H](C(=O)N[C@@H](C)C(=O)N1CCC[C@H]1C(=O)N[C@@H](CCCNC(=N)N)C(=O)N[C@@H](CO)C(=O)N[C@@H](CCCCN)C(=O)N[C@H](C(=O)N[C@@H](CO)C(=O)N1CCC[C@H]1C(=O)N[C@@H](CCC(N)=O)C(=O)N[C@@H](Cc1c[nH]cn1)C(=O)N1C[C@H](O)C[C@H]1C(N)=O)[C@@H](C)CC)C(C)C)[C@@H](C)O` [compound 219] (H-GCRTGTCTVQRLAHQIYQFTNKDKDNVAPRSKISPQH[Hyp]-NH2; disulfide 2-7; N-terminus assumed), on hAM1 receptor (setting [2]), the EC50 amounted to 4.25 µM. Besides, in data set [1], the “Max ThT signal (%)” value was determined as 0.700%.
